Assay results from paper PMC2964429 (Biochemistry, 2010).

Legend:
[1] = biological target: HpAgD (agmatine deiminase from Helicobacter pylori); details: read-out: IC50 HpAgD; previously reported; cited from earlier work
[2] = biological target: PgAgD (agmatine deiminase from P. gingivalis) (Porphyromonas gingivalis, UniProt Q7MXM8); test: IC50 determination, agmatine deiminase discontinuous ureido; type: biochemical
[3] = biological target: SmAgD (agmatine deiminase from S. mutans) (Streptococcus mutans serotype c, UniProt Q8DW17); test: as above; type: biochemical
Chain of SmAgD (agmatine deiminase from S. mutans) (Q8DW17 whole entry): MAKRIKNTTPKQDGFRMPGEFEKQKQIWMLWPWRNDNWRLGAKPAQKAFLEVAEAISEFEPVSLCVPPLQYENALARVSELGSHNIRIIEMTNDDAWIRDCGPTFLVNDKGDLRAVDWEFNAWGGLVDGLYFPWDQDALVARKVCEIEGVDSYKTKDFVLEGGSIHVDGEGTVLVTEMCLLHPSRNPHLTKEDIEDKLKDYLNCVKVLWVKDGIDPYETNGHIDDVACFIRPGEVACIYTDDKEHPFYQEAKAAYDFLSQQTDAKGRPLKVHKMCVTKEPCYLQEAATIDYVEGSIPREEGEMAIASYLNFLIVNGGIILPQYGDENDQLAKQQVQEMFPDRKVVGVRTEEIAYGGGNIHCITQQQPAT

[4] = system: Cys324; test: chemical modification; details: 37 °C, 50 mM HEPES, free enzyme (kinact/KI)

| Compound | IC50 [1] [µM] | IC50 [2] [µM] | IC50 [3] [µM] | pKa ([4]; 2-chloroacetamidine 0-60 mM) | pKa ([4]; iodoacetamide 0-20 mM) |
| --- | --- | --- | --- | --- | --- |
| N=C(CCl)NCCCCN [ABCA, N-(4-aminobutyl)-2-chloro-ethanimidamide] | 0.87 ± 0.03 | 15 ± 3 |  |  |  |
| N=C(CF)NCCCCN [ABFA, N-(4-aminobutyl)-2-fluoro-ethanimidamide] | 6.8 ± 0.26 | 91 ± 25 | 0.27 ± 0.1 |  |  |
| Agmatine deiminase (HpAgD) (Helicobacter pylori) |  |  |  | 9.8 ± 0.1 | 9.2 ± 0.3 |
